From US4791215A, “Derivatives of glutamic acid and aspartic acid” (priority 1984, dated 1988)
Like-named read-outs stand apart in the source and are kept apart here.

How the values were obtained:
[1] = Food consumption on daily oral dosing; assay type: in vivo, rats
Experimental: (§1) In order to check the hypothesis that the anti-CCK activity shown by most of the compounds in question may be used to advantage in the treatment of anorexia in man or as an appetite stimulant for farm animals, the following experiment was carried out:
(§2) Male rats having a weight of about 160 g, divided into groups of 10 animals, were used. […]
(§3) The drug, in the form of the sodium salt, was dissolved in water and administered in a volume of 10 ml of H2 O/kg while the control group received an equal volume of the solvent alone.
(§4) The following tables give the average values of the food consumption and the average weight of each group of animals, calculated weekly as well as the Student's t value calculated from the various treated groups and the group of control animals.

[2] = Body weight on daily oral dosing; assay type: in vivo, rats
Experimental: as §1, §2, §3, §4

normal pancreatic cells = assay: Trophic action of CCK-8 on normal pancreas; assay type: in vivo, hamsters
Description: (§5) The anti-cholecystokinin effect of the most powerful of the compounds which are the subject of the present invention, that is the compound C-7, on the trophic activity of CCK on normal pancreatic cells and on those of a pancreatic adenocarcinoma is to be studied.
(§6) Male hamsters were inoculated in the cheek pouches with a suspension of 1×10^5 tumoral cells of a pancreatic adenocarcinoma. Five days after the inoculation the animals were divided at random into 4 groups of 10 animals each, that is, a control group, a group of animals treated with 10 μg/kg of CCK-8 three times a day, a group of animals treated with 5 mg/kg i.p. of compound C-7 three times a day, and a fourth group treated simultaneously with the compound C-7 and CCK-8 in the manner described above.
(§7) After 15 days of this treatment, the animals were killed, and the normal pancreas and the inoculated pancreatic tumours in the cheek pouches were collected and weighed. The DNA was extracted and measured according to conventional techniques.
(§8) The results thus obtained are given in Table 13, expressed as mean values (±S.E.)

morphine analgesia = assay: Increase in analgesia of morphine, Tail Flick Test (Experiment 1); assay type: in vivo, rats
Method in brief: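 Non-fasted male rats (150-200 g); a tail point is exposed to a 75 °C heat source and latency to tail movement recorded, 8 s cut-off. Readings taken before and 10, 20, 30, 45, 60 and 90 min after analgesic treatment; percentage variation calculated per animal.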

[3] = tested on: CCK-8 induced contraction of rabbit colon; assay: Anti-spastic activity in the colon stimulated by CCK-8; assay type: in vivo
Experimental: A much more specific anti-spastic activity, that is adhering much more to a physiological situation, is illustrated by the following experiment.
The abdomen of an anaesthetised rabbit was cut open to show the transverse colon. A small balloon full of water was inserted at the point established and connected to a pressure transducer by means of a polythene cannula filled with water.
The optimum sensitivity was fixed in relation to the physiological conditions and the products were administered through the femoral vein. Contractions were induced by the administration of 100 ng/kg of CCK.

[4] = tested on: CCK-8 induced contraction of guinea pig gall bladder; assay: Anti-CCK activity on gall bladder strips in vitro
Method in brief: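 Longitudinal guinea pig gall bladder strips in Krebs at 32 °C, gassed with O2/CO2 95:5, were contracted with 10 ng/ml CCK-8. Isometric force was recorded across several compound concentrations, and ED50 was taken as the μg/ml concentration antagonising 50% of the CCK contraction.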

[5] = tested on: pancreatic adenocarcinoma; assay type: in vivo, hamsters
Description: as §5, §6, §7, §8

[6] = 10 mcg/kg CCK-8 + compound 5 mg/kg, 3 times a day
[7] = compound 5 mg/kg i.p. 3 times per day

SMILES: CCCCCN(CCCCC)C(=O)C(CCC(=O)O)NC(=O)c1ccc(Cl)c(Cl)c1 (stereo not drawn) [Compound C-7]
- increase in food consumption compared with controls ([1]; 0.3 mg/kg daily): about 15%
- food consumption ([1]; 0.3 mg/kg os, week 1): 176.4 ± 3.70 g/week
- food consumption ([1]; 0.3 mg/kg os, week 2): 216.8 ± 4.71 g/week
- food consumption ([1]; 0.3 mg/kg os, week 3): 239.3 ± 4.07 g/week
- food consumption ([1]; 1 mg/kg os, week 1): 199.6 ± 3.88 g/week
- food consumption ([1]; 1 mg/kg os, week 2): 230.5 ± 3.09 g/week
- food consumption ([1]; 1 mg/kg os, week 3): 261.4 ± 4.24 g/week
- food consumption ([1]; 3 mg/kg os, week 1): 198.4 ± 3.66 g/week
- food consumption ([1]; 3 mg/kg os, week 2): 244.8 ± 3.09 g/week
- food consumption ([1]; 3 mg/kg os, week 3): 268.8 ± 4.86 g/week
- increase in food consumption compared with controls ([1]; other doses tested (1, 3 mg/kg daily)): about 30%
- body weight ([2]; 0.3 mg/kg os, time 0): 162.1 ± 2.48 g
- body weight ([2]; 0.3 mg/kg os, week 1): 201.3 ± 2.7 g
- body weight ([2]; 0.3 mg/kg os, week 2): 254.5 ± 2.66 g
- body weight ([2]; 0.3 mg/kg os, week 3): 315.2 ± 2.72 g
- body weight ([2]; 1 mg/kg os, time 0): 166.0 ± 1.56 g
- body weight ([2]; 1 mg/kg os, week 1): 214.7 ± 1.93 g
- body weight ([2]; 1 mg/kg os, week 2): 267.5 ± 2.6 g
- body weight ([2]; 1 mg/kg os, week 3): 319.8 ± 2.49 g
- body weight ([2]; 3 mg/kg os, time 0): 166.6 ± 1.73 g
- body weight ([2]; 3 mg/kg os, week 1): 227.9 ± 1.65 g
- body weight ([2]; 3 mg/kg os, week 2): 290.9 ± 2.6 g
- body weight ([2]; 3 mg/kg os, week 3): 349.5 ± 2.82 g
- weight increase versus control animals ([2]; 0.3, 1 and 3 mg/kg os): significantly greater weight increase than the control animals
- Pancreas weight (normal pancreatic cells; [6]): 374 ± 25.4 mg
- Pancreatic DNA (normal pancreatic cells; [6]): 1.0 ± 0.08 mg
- Pancreas weight (normal pancreatic cells; [7]): 336 ± 22.6 mg
- Pancreatic DNA (normal pancreatic cells; [7]): 0.93 ± 0.09 mg
- percentage variation of latency of pain sensation (morphine analgesia; 10', compound 10 mg/kg i.p. + morphine 2 mg/kg): 67.9 ± 14.3%
- percentage variation of latency of pain sensation (morphine analgesia; 20', compound 10 mg/kg i.p. + morphine 2 mg/kg): 71.5 ± 17.6%
- percentage variation of latency of pain sensation (morphine analgesia; 30', compound 10 mg/kg i.p. + morphine 2 mg/kg): 79.4%
- percentage variation of latency of pain sensation (morphine analgesia; 45', compound 10 mg/kg i.p. + morphine 2 mg/kg): 84.6 ± 10.5%
- percentage variation of latency of pain sensation (morphine analgesia; 60', compound 10 mg/kg i.p. + morphine 2 mg/kg): 92.9 ± 4.1%
- percentage variation of latency of pain sensation (morphine analgesia; 90', compound 10 mg/kg i.p. + morphine 2 mg/kg): 72.6 ± 7.0%
- M (10-90) ± SE, mean percentage variation of latency (morphine analgesia; mean 10-90 min, compound 10 mg/kg i.p. + morphine 2 mg/kg): 78.2 ± 9.4%
- Power ratio with respect to morphine alone (morphine analgesia; rat, in vivo): 2.62
- effect on CCK-8 stimulated colon ([3]; 3 mg/kg iv, single experiments): -100.0
- ED50 ([3]; Oryctolagus cuniculus, iv, CCK 100 ng/kg): 1.11 mg/kg
- active concentration relative to that of CCK-8 ([4]; 50% antagonism of CCK-8): about 10 times
- ED50 (concentration antagonising 50% of contracting effect of CCK-8) ([4]; CCK-8 10 ng/ml): 0.06 µg/mL
- TUMORAL DNA [5, 6]: 0.4 ± 0.02 mg
- Weight of Pancreatic Carcinoma [5, 6]: 109.5 ± 6.2 mg
- TUMORAL DNA [5, 7]: 0.42 ± 0.02 mg
- Weight of Pancreatic Carcinoma [5, 7]: 104 ± 7.5 mg
- effect on growth of pancreatic adenocarcinoma / CCK-8 actions ([5]; hamster, in vivo): antagonises both these actions of CCK-8 in a higly significant manner
